The results in this text go back to the NIST ThermoML archive (doi:10.1016/j.jct.2012.01.003).

Series [1] can be described thus: refractive index (Na D-line) (dimensionless). The settings on record: 298.2 K; 101.33 kPa; Liquid; Standard Abbe refractometry.
The conditions of series [2]: 298.2 K; 101.33 kPa; Liquid; Kyoto 210 Density Meter.

Numbers after ± are expanded uncertainties.

As a reminder, the refractive index is the speed of light in vacuum divided by its phase velocity in the sample. The term mass density denotes the mass of a sample divided by its volume. As for `CCCCCCO` [hexan-1-ol], the refractive index in series [1] turned out to be 1.4155 ± 0.0004. Also, the mass density in series [2] is reported as 815.21 ± 0.24 kg/m3. In the same order, the values of `CCCCCCCCCCO` [decan-1-ol] are 1.4344 ± 0.0004 and 826.86 ± 0.24 kg/m3. Consider `CCC(C)O` (stereo unspecified) [butan-2-ol], for which the refractive index in series [1] is on record as 1.3949 ± 0.0004. Moreover, the mass density in series [2] was 802.34 ± 0.23 kg/m3.

For `CCCCCCCCO` [octan-1-ol], the refractive index in series [1] came to 1.427 ± 0.0004. In series [2], the mass density is reported as 825.1 ± 0.24 kg/m3. For `CCCCCCCO` [heptan-1-ol], in series [1], the refractive index is 1.4224 ± 0.0004. The mass density in series [2] stood at 818.83 ± 0.24 kg/m3. As for `O` [water], in series [1], the refractive index was 1.3324 ± 0.0004.
